According to patent US20250185666A1, “Root-Targeted Delivery of Agrochemicals using Natural Microbial Carriers” (priority 2023, published 2025):
Where “and” joins values, the source holds several entries; their conditions need not be identical. Identical values can stand only once. Marks after values point to notes of the source that are not given here.

Key:
Spodoptera frugiperda = assay: Maize leaf fall armyworm damage assay after seed treatment (feeding damage and FAW mortality); type: in vivo; design: Regression for feeding damage by leaf segment, Leaf 3 Middle / Regression for feeding damage by leaf segment, Leaf 3 Tip / Regression for feeding damage by leaf segment, Leaf 4 Middle / Regression for feeding damage by leaf segment, Leaf 4 Tip / Regression for feeding damage by leaf segment, Leaf 5 Middle / Regression for feeding damage by leaf segment, Leaf 5 Tip: unit not given here; details: for Regression for feeding damage by leaf segment, Leaf 3 Middle / Regression for feeding damage by leaf segment, Leaf 3 Tip / Regression for feeding damage by leaf segment, Leaf 4 Middle / Regression for feeding damage by leaf segment, Leaf 4 Tip / Regression for feeding damage by leaf segment, Leaf 5 Middle / Regression for feeding damage by leaf segment, Leaf 5 Tip: coefficient vs Baseline; for Regression for FAW mortality rate (coefficient) / Regression for overall feeding damage (coefficient): vs Baseline, controls for experimental run and tray location; for Regression for FAW mortality rate (coefficient): across six leaf segments per plant; for Regression for overall feeding damage (coefficient): averaged across six leaf segments per plant
Method: An experiment was designed to measure any systemic effects of soil protists in the presence and absence of (agrochemical) insecticide on pest damage resistance for plants grown from seeds. The experiments consisted of two stages: the growth stage and the pest stage. In the growth stage, maize seeds were treated individually with one of six mixtures containing bacteria, protists, and or/agrochemicals. All treatments included heat-killed bacteria, the food source for protists (protozoa). Additional potential components of each treatment were one of two agrochemicals, or soil protists, or one of two agrochemicals plus soil protists (Table 1). Treated seeds were germinated and grown in soil-filled pots in a greenhouse. Plants were grown in surplus quantities and down-selected to 48 representative plants per treatment for each experimental run (Table 2).
In the pest stage, three individual leaves were harvested from each plant, then the Tip and Middle segments of said leaves were collected. Each of the six leaf segments from the plant were placed in individual tray wells and challenged by a single insect larva, as explained further below.
Formulations for seed treatments (Table 1) were prepared in Page's Saline 24 h prior to inoculation and held at 23° C. in darkness. Prior to application, each formulation was vortexed for 30 sec then a small aliquot (50 μL) was added directly on top of each exposed seed during planting. Based on our prior experience, this small-volume-aliquot performs similarly to more conventionally formulated seed coatings, enabling early-stage screening of experimental formulations that are available only in limited quantities.
For each experimental run, 240 pots (10-cm, TLC Square Form Pots, HC Companies) were first filled with dry, steam pasteurized screened field soil (Kalamazoo, Michigan; Coloma loamy sand). The soil was misted with water with an automated system to reach field capacity in the Corteva Agriscience greenhouse located in Indianapolis, IN for at least 4 d prior to planting. Next, 3.8 cm deep, 2 cm wide holes were created in the center of each soil-filled pots, and a single seed was placed tip cap side down 3.8 cm below the soil surface. Each seed was immediately inoculated with a seed treatment (described above, n=60 per treatment). Treated pots were then randomized in the greenhouse to reduce systematic error (FIG. 1A). The greenhouse averaged 23° C. (maximum of 30° C. day and minimum of 19° C. at night). The plants received 100 mL water from the automated system, split over 49 passes, during the first week after planting, and 200 mL water split over 98 passes during the second week after planting.
Leaf segments were harvested on 48 representative plants selected from the 60 pots per treatment (FIG. 1A). Trays were filled in a semi-random fashion with less optimal plants at the end of tray 3 and the most underdeveloped plants being discarded. Plants were numbered as they were selected during the Leaf 3 harvest, and tracked through the harvest of Leaves 4 and 5 for robustness. Maize leaves are labelled according to the order they sprout. Maize was allowed to grow for 10 d before harvesting Leaf 3 and left for another 4 d (14 d total) before harvesting Leave 4, 5 (FIG. 1B). Leaves were segmented with the distal 3.8 cm labelled as Tip. Leaf Middle segments were harvested as a 3.8-cm segment from the middle of the leaf. For smaller leaves (such as the earlier-harvested Leaf 3), the Middle abutted the Tip. For larger leaves (4th and 5th), any section between Tip and Middle segments was discarded. For agrochemicals which translocate, such as those tested here, the agrochemical accumulates in the leaf Tips. By testing both leaf Tip and Middle, the relative amount of agrochemical moved by phloem or xylem transport since the leaf sprouted can be measured (Tip) along with the agrochemical in the process of transportation during harvest (Middle). […]

[1] = Transport of 14C-labeled Chlorantraniliprole in maize (autoradiography, combustion analysis); details: maize (Zea mays L.), in vivo, 7 d
Method: A scaled-up version of the μ-rhizoslide was developed to work with maize. First, ^14C-labeled agrochemical was dissolved in acetone, spiked onto the wall of a glass sample vial, and the acetone evaporated. Un-radiolabeled agrochemical formulation was then added to the vial and sonicated for 20 min to distribute the ^14C-labeled material into the formulation. The formulation was then mixed with Page's Saline containing heat-killed E. coli, or with Page's Saline containing both protists and heat-killed E. coli to prepare the seed treatments formulation. As described before, the ^14C-labeled seed treatment formulations were allowed to rest in darkness for 24 h prior to application. Final radioactivity was measured at approximately 300,000 DPM per individual seed treatment. Pots were filled, and seeds planted and treated as described above. Plants were harvested at 1 week due to restricted space for work with radiolabeled material. […]
A similar experiment was conducted using ^14C-labeled Chlorantraniliprole, differing in the allocated growth period (7 vs 14 d), watering schedule (due to limitations of radioactive containment), and pot (3D printed device optimized for radio-detection vs traditional 4.5″ pot). Radioactivity in both the plant material and the soil were measured before combustion analysis was conducted on the plant material.

UC-1 cultures = assay: Screen of candidate formulations for operational toxicity to UC-1 cultures; details: concentrated formulation
Description: Finally, candidate formulations were screened for operational toxicity to UC-1 cultures (i.e., live protists in a concentrated formulation should remain viable and actively moving). […] Both agrochemicals were used in their like-commercial formulations, which is a proprietary blend containing biocides and other ingredients needed to keep the agrochemical suspended and maintain performance.

[2] = Table 6 (Chlorantraniliprole data set)

Molecule: CNC(=O)c1cc(Cl)cc(C)c1NC(=O)c1cc(Br)nn1-c1ncccc1Cl [Chlorantraniliprole, chlorantraniliprole]
- Regression for feeding damage by leaf segment, Leaf 3 Middle (Spodoptera frugiperda; [2]): −36.100***
- Regression for feeding damage by leaf segment, Leaf 3 Tip (Spodoptera frugiperda; [2]): −65.841***
- Regression for feeding damage by leaf segment, Leaf 4 Middle (Spodoptera frugiperda; [2]): −6.424**
- Regression for feeding damage by leaf segment, Leaf 4 Tip (Spodoptera frugiperda; [2]): −46.026***
- Regression for feeding damage by leaf segment, Leaf 5 Middle (Spodoptera frugiperda; [2]): −2.566
- Regression for feeding damage by leaf segment, Leaf 5 Tip (Spodoptera frugiperda; [2]): −34.783***
- Reduction of feeding damage from Baseline, Leaf 4 Middle (Spodoptera frugiperda; in vivo): 7.2 percentage points
- Reduction of feeding damage from Baseline, Leaf 5 Middle (Spodoptera frugiperda; in vivo): 3.5 percentage points
- Feeding damage, Leaf 4 Middle (Spodoptera frugiperda; leaf harvested 14 d): 86% and 86.4%
- Feeding damage, Leaf 4 Tip (Spodoptera frugiperda; leaf harvested 14 d): 49%
- Feeding damage, Leaf 5 Middle (Spodoptera frugiperda; leaf harvested 14 d): 88%
- Regression for FAW mortality rate (coefficient) (Spodoptera frugiperda): 20.341***
- Regression for overall feeding damage (coefficient) (Spodoptera frugiperda): −31.836***
- Distribution of 14C-labeled Chlorantraniliprole in plant parts [1]: higher concentration of Chlorantraniliprole in earlier parts (stem, Leaf 1)
- Operational toxicity to UC-1 cultures (live protists remain viable and actively moving) (UC-1 cultures): satisfied all criteria

Molecule: Spinosad
- Regression for feeding damage by leaf segment, Leaf 3 Middle (Spodoptera frugiperda; Table 7 (Spinosad data set)): −45.225***
- Regression for feeding damage by leaf segment, Leaf 3 Tip (Spodoptera frugiperda; Table 7 (Spinosad data set)): −59.140***
- Regression for feeding damage by leaf segment, Leaf 4 Middle (Spodoptera frugiperda; Table 7 (Spinosad data set)): −40.880***
- Regression for feeding damage by leaf segment, Leaf 4 Tip (Spodoptera frugiperda; Table 7 (Spinosad data set)): −59.365***
- Regression for feeding damage by leaf segment, Leaf 5 Middle (Spodoptera frugiperda; Table 7 (Spinosad data set)): −10.627***
- Regression for feeding damage by leaf segment, Leaf 5 Tip (Spodoptera frugiperda; Table 7 (Spinosad data set)): −29.736***
- Reduction of feeding damage from Baseline, Leaf 4 Tip (Spodoptera frugiperda; in vivo): 58.5 percentage points
- Reduction of feeding damage from Baseline, Leaf 5 Middle (Spodoptera frugiperda; in vivo): 9.5 percentage points
- Feeding damage, Leaf 4 Tip (Spodoptera frugiperda; leaf harvested 14 d): ~35.0%
- Feeding damage, Leaf 5 Middle (Spodoptera frugiperda; leaf harvested 14 d): ~82.2%
- Regression for FAW mortality rate (coefficient) (Spodoptera frugiperda): 33.342***
- Regression for overall feeding damage (coefficient) (Spodoptera frugiperda): −39.981***
